Marks after values point to notes of the source that are not given here.
Assays:
Myocardial Mitochondria = experiment: Myocardial mitochondrial glutathione antioxidant status, young male and female rats; format: in vivo, rat; conditions: 35 days
Experimental: Male/Female adult Sprague-Dawley rats (˜10 weeks old) were maintained under a 12-h dark/light cycle at about 22° C. and allowed food and water ad libitum. Animals were randomly divided into groups, with at least 5 animals in each. In the pretreatment groups, rats were treated intragastrically with (−) Schisandrin B at a daily dose of 1 or 10 mg/kg for 35 days. Control animals received oil only (10 ml/kg). Twenty-four hours following the last dosing, hearts were isolated from control or drug-pretreated rats and then subjected to Langendorff perfusion as described below.
Myocardial tissue samples were rinsed with ice-cold isotonic buffer (50 mM Tris, 0.32 M sucrose, 1 mM Na2EDTA, 0.2 mg/ml soybean trypsin inhibitor, 0.2 mg/ml bacitracine, 0.16 mg/ml benzamidine). Tissue homogenates were prepared by homogenizing 0.8 g of myocardial tissue in 8 ml ice-cold isotonic buffer and the homogenates were used for the preparation of mitochondrial fractions by differential centrifugation, as described in Chiu and Ko (2004). The mitochondrial pellets were resuspended in 1.5 ml of isotonic buffer containing 150 μl of 2 mg/ml soybean trypsin inhibitor and constituted the mitochondrial fractions.
Aliquots (500 μl) of mitochondrial fractions were taken for measuring mitochondrial GSH level by HPLC methods, using GSH as standards, respectively, as described (Chiu et al 2002). Aliquots (400 μl) of mitochondrial fractions were mixed with 933 μl Triton X-100 solution (0.3%, v/v, in isotonic buffer) and sonicated for 2 min on ice. The mixtures were then subjected to measurements of mitochondrial glutathione reductase (GRD), Se-glutathione peroxidase (GPX) and glutathione S-transferases (GST) activities by spectrophotometric methods, as described in Chiu et al. (2002).

[1] = system: mitochondria of brain, heart, liver and skeletal muscle; experiment: Mitochondrial reactive oxidant species (ROS) generation in tissues of young adult and middle-aged rats; format: in vivo, rat
Experimental: Young adult (8-10 week-old) and middle-aged (12-14 month-old retired breeder) female Sprague-Dawley rats were maintained under a 12-h dark/light cycle at about 22° C. and allowed food and water ad libitum. Experimental protocols were approved by the Research Practice Committee at the Hong Kong University of Science & Technology, Hong Kong. Animals were randomly divided into groups, with 5 animals in each. In the treatment groups, rats were intragastrically administered with Sch B (dissolved/suspended in olive oil) at a daily dose of 10 mg/kg for 15 days. The daily dose is approximated to 1.14 mg/kg for humans after adjusting the inter-species difference in drug distribution in the body. Untreated control animals received olive oil only. Twenty-four hours after the last dosing, animals were sacrificed by decapitation and the whole brain, heart ventricular, liver and skeletal muscle (hind limb) tissues were excised and subjected to biochemical analysis. To investigate the effect of (−) Sch B on myocardial ischemia-reperfusion […] injury, rats were intragastrically administered with (−) Sch B at a daily dose of 10 mg/kg for 35 days. Untreated control animals received olive oil only. […]
Mitochondrial pellets were prepared from tissue homogenates by centrifugation at 800×g at 4° C. for 30 min, with purity being determined by measuring the relative specific activities of succinate dehydrogenase and lactate dehydrogenase (LDH) in the supernatant and mitochondrial pellet. […] The protein concentration of mitochondrial fractions was determined using a Bio-Rad protein assay kit.
An aliquot (50 μl) of mitochondrial fraction (50 μg protein/ml) and 60 μl of DCFDA solution (17.5 μM in incubation buffer) were added into wells of a black micro-titer plate. […] Fluorescence intensity (excitation: 485 nm and emission: 535 nm) of the reaction mixture was monitored every 5 min for 60 min. The mitochondrial ROS generation was reflected by the fluorescence intensity of the sample after subtracting the value of a blank sample containing incubation buffer, substrate solution and DCFDA. […]

[2] = female rats, 1 mg/kg daily oral
[3] = female rats, 10 mg/kg daily oral

COc1cc2c(c(OC)c1OC)-c1c(cc3c(c1OC)OCO3)CC(C)C(C)C2 (single isomer, unassigned; (-)) [(−) Sch B, (−) Schisandrin B]
GPX (Myocardial Mitochondria; [2]): 73.2 ± 4.98^b mU/mg Protein | GPX, percent increase vs untreated control (Myocardial Mitochondria; [2]): (43%) | GRD (Myocardial Mitochondria; [2]): 6.30 ± 0.37^b mU/mg protein | GRD, percent increase vs untreated control (Myocardial Mitochondria; [2]): (34%) | GSH (Myocardial Mitochondria; [2]): 17.3 ± 1.11^b nmol/mg protein | GSH, percent increase vs untreated control (Myocardial Mitochondria; [2]): (60%) | GST (Myocardial Mitochondria; [2]): 14.1 ± 0.58^b mU/mg protein | GST, percent increase vs untreated control (Myocardial Mitochondria; [2]): (37%) | GPX (Myocardial Mitochondria; [3]): 78.3 ± 2.94^b mU/mg Protein | GPX, percent increase vs untreated control (Myocardial Mitochondria; [3]): (53%) | GRD (Myocardial Mitochondria; [3]): 8.02 ± 0.55^b mU/mg protein | GRD, percent increase vs untreated control (Myocardial Mitochondria; [3]): (71%) | GSH (Myocardial Mitochondria; [3]): 21.6 ± 0.38^b nmol/mg protein | GSH, percent increase vs untreated control (Myocardial Mitochondria; [3]): (107%) | GST (Myocardial Mitochondria; [3]): 16.9 ± 0.90^b mU/mg protein | GST, percent increase vs untreated control (Myocardial Mitochondria; [3]): (63%) | GPX (Myocardial Mitochondria; male rats, 1 mg/kg daily oral): 77.3 ± 3.78^a mU/mg Protein | GPX, percent increase vs untreated control (Myocardial Mitochondria; male rats, 1 mg/kg daily oral): (48%) | GRD (Myocardial Mitochondria; male rats, 1 mg/kg daily oral): 6.76 ± 0.29 mU/mg protein | GRD, percent increase vs untreated control (Myocardial Mitochondria; male rats, 1 mg/kg daily oral): (26%) | GSH (Myocardial Mitochondria; male rats, 1 mg/kg daily oral): 18.1 ± 1.06^a nmol/mg protein | GSH, percent increase vs untreated control (Myocardial Mitochondria; male rats, 1 mg/kg daily oral): (56%) | GST (Myocardial Mitochondria; male rats, 1 mg/kg daily oral): 12.8 ± 0.10 mU/mg protein | GST, percent increase vs untreated control (Myocardial Mitochondria; male rats, 1 mg/kg daily oral): (65%) | GPX (Myocardial Mitochondria; male rats, 10 mg/kg daily oral): 83.7 ± 2.12^a mU/mg Protein | GPX, percent increase vs untreated control (Myocardial Mitochondria; male rats, 10 mg/kg daily oral): (60%) | GRD (Myocardial Mitochondria; male rats, 10 mg/kg daily oral): 7.59 ± 0.13^a mU/mg protein | GRD, percent increase vs untreated control (Myocardial Mitochondria; male rats, 10 mg/kg daily oral): (42%) | GSH (Myocardial Mitochondria; male rats, 10 mg/kg daily oral): 23.8 ± 1.10^a nmol/mg protein | GSH, percent increase vs untreated control (Myocardial Mitochondria; male rats, 10 mg/kg daily oral): (105%) | GST (Myocardial Mitochondria; male rats, 10 mg/kg daily oral): 14.5 ± 0.36^a mU/mg protein | GST, percent increase vs untreated control (Myocardial Mitochondria; male rats, 10 mg/kg daily oral): (83%) | decrease of mitochondrial ROS generation ([1]; middle-aged rats, 10 mg/kg/day x 15, range among tissues): 11-23% | difference in liver mitochondrial ROS generation between control and treated ([1]; middle-aged rats, liver): not statistically significant | suppression of mitochondrial ROS generation ([1]; young adult rats, 10 mg/kg/day x 15, range among all tissues): 16-38%

Reference: patent US7531195B2, “Schisandrin B preparation” (priority 2005, dated 2009)
